Source: patent publication US6462078B1, “Epoxyvibsanin B” (priority 2001, dated 2002)

Columns and labels:
Type in all cases: cell-based, human
[1] = test system: THP-1 cells; assay: Cytotoxicity assay (MTS) in THP-1 cells
Description: (§1) Epoxyvibsanin B was also tested for cytotoxicity using a Cell Titer 96 Aqueous Non-radioactive kit (Promega, order no. G5421). Phenazine methosulfate (Sigma; catalog no. P 5812) was added as an electron donor to a cell culture containing PBMC (500,000 cells per well) and epoxyvibsanin B (final concentration of 1 μg/ml). 3-(4,5-Dimethylthiazole-2-yl)-5-(3-carbomethoxyphenyl)-2-(4-sulphophenyl)-2H-tetrazolium (MTS) was then added. Cells were incubated for 2 hours in a humidified 37° C., 7% CO2 incubator. The supernatant from the cell culture was harvested and its absorbance at 490 nm was recorded. Cell viability was determined based on the level of MTS (which reacted with mitochondria dehydrogenases enzymes in the living cells), as compared to that obtained from an epoxyvibsanin B-free control experiment. Epoxyvibsanin B was further tested for cytotoxicity toward THP-1 cells.

[2] = test system: IL-12 production; assay: IL-12 inhibitory assay in PBMC stimulated with IFN-γ and LPS (IL-12 p70 sandwich ELISA)
Description: Mononuclear cells from human peripheral blood (PBMC) were harvested from a leukopak using standard procedures. The cells, diluted to three millions per mL, were maintained in RPMI medium supplemented with fetal calf serum (10%), penicillin (100 U/mL), streptomycin (100 μg/mL) and […] (2 mM). Human interferon gamma (IFN-γ, Boehringer Mannheim; catalog no. 1040596) was diluted to 60 units/mL using the cell-containing supplemented medium. 100 μL of the resulting cell culture was added to each well of a 96-well U-shaped bottom microtiter plate, and incubated overnight in a humidified 37° C., 7% CO2 incubator. Epoxyvibsanin B in 4×RPMI stock medium was added to each well with a final concentration of 1 μg/mL, followed by the addition of lipopolysaccharide (LPS, Serratia […] Sigma; catalog no. L-4766) in 4×RPMI stock medium with a final concentration of 1 μg/mL. The plate was gently vortexed and continuously incubated for 16 hrs. IFN-γ and LPS have stimulated PBMC for IL-12 production. The supernatant from each cell culture was harvested, and the secreted IL-12 p70 in the supernatant was quantitated with a sandwich ELISA using anti-human IL-12 antibodies (R & D systems; catalog no. mAb 611 and catalog no. BAF 219). An epoxyvibsanin B-free control experiment was also perfonned. […] The inhibition of IL-12 production was further tested in parallel experiments using two cell lines: PBMC and the human promonocytic leukemia mononuclear cells (THP-1 cells). As described above, PBMC were added to a 96-well plate with 500,000 cells per well, and stimulated for IL-12 production with IFN-γ (200 U/ml) and LPS (1 μg/ml). In parallel, THP-1 cells were added to a 96-well plate with 800,000 cells per well, and stimulated for IL-12 production with IFN-γ (2000 U/ml) and Staph Aureus Cowan I (0.05%, SAC or Pansorbin; from Calbiochem; lot no. B15921). The supernatant from each cell culture was harvested and analyzed for IL-12 p70 with a sandwich ELISA by using the antibodies indicated above. […]

[3] = test system: PBMC
Description: as §1

[4] = test system: IL-12 production; assay: IL-12 inhibitory assay in THP-1 cells stimulated with IFN-γ and SAC (IL-12 p70 sandwich ELISA); conditions: THP-1 800,000 cells per well, IFN-γ 2000 U/ml + SAC 0.05%; read-out: IC50, inhibition of IL-12 production
Description: The inhibition of IL-12 production was further tested in parallel experiments using two cell lines: PBMC and the human promonocytic leukemia mononuclear cells (THP-1 cells). As described above, PBMC were added to a 96-well plate with 500,000 cells per well, and stimulated for IL-12 production with IFN-γ (200 U/ml) and LPS (1 μg/ml). In parallel, THP-1 cells were added to a 96-well plate with 800,000 cells per well, and stimulated for IL-12 production with IFN-γ (2000 U/ml) and Staph Aureus Cowan I (0.05%, SAC or Pansorbin; from Calbiochem; lot no. B15921). The supernatant from each cell culture was harvested and analyzed for IL-12 p70 with a sandwich ELISA by using the antibodies indicated above. […] The activity of epoxyvibsanin B in inhibiting IL-12 production is 10-fold that of a known anti-inflammatory compound, dexamethazone.

IC50 ([2]; PBMC 500,000 cells per well, IFN-γ 200 U/ml + LPS 1 μg/ml, read-out: IC50, inhibition of IL-12 production): ~1 nM | IC50 [4]: 20 nM
Substance: epoxyvibsanin B
CC50 [1]: 10 µM | inhibition of IL-12 production, as compared with control ([2]; PBMC, IFN-γ 60 units/mL + LPS 1 μg/mL, compound 1 μg/mL, 16 hrs): 90% | activity in inhibiting IL-12 production relative to dexamethazone ([2]; compared with dexamethazone, cell type not specified): 10 fold | CC50 [3]: 5 µM | cytotoxicity compared with dexamethazone [3]: lower than that of dexamethazone
